Tested on: 945468-187-T-J3-PDC spheroids with HUVEC/MSC, viability
Experiment: Anticancer human tumor 945468-187-T-J3-PDC patient-derived rectal carcinoma cell line growth inhibition [PI3K]
Conditions: for IC50: curve of first compound; for viability, T/C: stronger effect = lower value
Source text: Combinatorial screen of targeted agents with the PI3K inhibitors inavolisib, alpelisib, duvelisib, and copanlisib in multi-cell type tumor spheroids
A high-throughput screen of multi-cell type tumor spheroids was designed to identify active combinations of targeted small molecules and PI3K pathway inhibitors. Complex spheroids include a stromal component modeled by human endothelial cells (HUVEC) and fibroblasts modeled by human mesenchymal stem cells (MSCs). The concentration ranges selected for each drug and investigational agent were based upon clinically achievable concentrations if the clinical Cmax of the agent was known.
Compounds. The drugs and investigational agents: inavolisib (NSC800729), alpelisib (NSC765974), duvelisib (NSC772469), copanlisib (NSC816437), ipatasertib (NSC767898), afuresertib (NSC778305), talazoparib (NSC767125), sapanisertib (NSC764658), selumetinib (NSC741078), tovorafenib (DAY101, NSC766906), vemurafenib (NSC761431), ravoxertinib (NSC781343), sotorasib (NSC818433), MRTX1133 (NSC 836407), abemaciclib (NSC 768073), palbociclib (NSC758247), venetoclax (NSC 766270), SY5609 (NSC837396), enzalutamide (NSC755605), and darolutamide (NSC825331), were obtained from the National Cancer Institute (NCI) Developmental Therapeutics Program Chemical Repository. The FDA-approved anticancer drug set is available from the NCI Developmental Therapeutics Program. […] The stock solutions were prepared in dimethyl sulfoxide (DMSO, Sigma-Aldrich, St. Louis, MO, cat. D2650) at 800-fold the tested concentration and stored at -70 degrees C prior to their use. All drugs and investigational agents were tested over a range starting from a high concentration at or near the clinical Cmax and decreasing in half-log increments. If the clinical Cmax for an agent had not been determined, the highest concentration tested was 10 microM.
Cell Culture. All cells were maintained in an incubator at 37 degrees C and 5% CO2 with 95% humidity. The PDC lines were cultured according to standard operating procedures established by the NCI PDMR (https://pdmr.cancer.gov/sops/default.htm). All PDCs were thawed and cultured in Matrigel-coated flasks prepared with a working solution of 1X Ham's F-12 nutrient mix, without supplementation (Invitrogen, Waltham, MA, cat. 11765054), 100 U/mL penicillin-streptomycin (Invitrogen, cat. 15140122), and 2.5% Matrigel (Corning Inc., Corning, NY, cat. 354248) for the first three passages. The 354836-022-R-J1-PDC, 475296-252-R-J1-PDC, and 997726-040-R-J2-PDC lines were cultured in 6A media, which includes advanced DMEM/F-12 (Thermo Fisher Scientific, cat. 12634028), 10 mM HEPES (Thermo Fisher Scientific, cat. 15630080), 1X GlutaMAX supplement (Thermo Fisher Scientific, cat. 35050061), 0.1 mg/mL primocin (InvivoGen, San Diego, CA, cat. ant-pm-2), 10% defined fetal bovine serum, heat inactivated (HyClone Laboratories Inc., Logan, UT, cat. SH30070.03HI), 50% L-WRN conditioned media (ATCC, cat. CRL-3276), 1.25 mM N-Acetyl-L-cysteine (Sigma-Aldrich, cat. A9165), 10 mM nicotinamide (Sigma-Aldrich, cat. N0636), 1X B-27 supplement (Thermo Fisher Scientific, cat. 17504044), 1X N-2 supplement (Thermo Fisher Scientific, cat. 17502048), and 10 microM Y-27632 dihydrochloride (Tocris Bioscience, Bristol, United Kingdom, cat. 1254). The 624824-186-R-J2-PDC line was cultured in 6C/Colon 1B media, which includes all 6A media components plus 50 ng/mL human EGF recombinant protein (Thermo Fisher Scientific, cat. PHG0311). […]

[1] = second compound 0.0316 µM, first compound 0.0316 µM
[2] = second compound 0.0316 µM, first compound 0.1 µM
[3] = second compound 0.0316 µM, first compound 0.316 µM
[4] = second compound 0.0316 µM, first compound 1 µM
[5] = second compound 0.0316 µM, first compound 3.16 µM
[6] = second compound 0.0316 µM, first compound 10 µM
[7] = second compound 0.1 µM, first compound 0.0316 µM
[8] = second compound 0.1 µM, first compound 0.1 µM
[9] = second compound 0.1 µM, first compound 0.316 µM
[10] = second compound 0.1 µM, first compound 1 µM
[11] = second compound 0.1 µM, first compound 3.16 µM
[12] = second compound 0.1 µM, first compound 10 µM
[13] = second compound 0.316 µM, first compound 0.0316 µM
[14] = second compound 0.316 µM, first compound 0.1 µM
[15] = second compound 0.316 µM, first compound 0.316 µM
[16] = second compound 0.316 µM, first compound 1 µM
[17] = second compound 0.316 µM, first compound 3.16 µM
[18] = second compound 0.316 µM, first compound 10 µM
[19] = second compound 1 µM, first compound 0.0316 µM
[20] = second compound 1 µM, first compound 0.1 µM
[21] = second compound 1 µM, first compound 0.316 µM
[22] = second compound 1 µM, first compound 1 µM
[23] = second compound 1 µM, first compound 3.16 µM
[24] = second compound 1 µM, first compound 10 µM
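Also: spheroids exposed to agents for 7 days before viability read.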
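For viability, T/C in this document: 100% = DMSO vehicle control viability.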

SMILES: CCCS(=O)(=O)Nc1ccc(F)c(C(=O)c2c[nH]c3ncc(-c4ccc(Cl)cc4)cc23)c1F + COc1c(OCCCN2CCOCC2)ccc2c3n(c(=NC(=O)c4cnc(N)nc4)nc12)CCN3
- IC50 (second compound 0.00316 µM): > 10 µM
- IC50 (second compound 0.01 µM): > 10 µM
- IC50 (second compound 0.0316 µM): 7.31 µM
- IC50 (second compound 0.1 µM): < 0.0316 µM
- IC50 (second compound 0.316 µM): < 0.0316 µM
- IC50 (second compound 1 µM): < 0.0316 µM
- viability, T/C (second compound 0.00316 µM, first compound 0.0316 µM): 106%
- viability, T/C (second compound 0.00316 µM, first compound 0.1 µM): 81%
- viability, T/C (second compound 0.00316 µM, first compound 0.316 µM): 88.9%
- viability, T/C (second compound 0.00316 µM, first compound 1 µM): 77.7%
- viability, T/C (second compound 0.00316 µM, first compound 3.16 µM): 87.2%
- viability, T/C (second compound 0.00316 µM, first compound 10 µM): 52.3%
- viability, T/C (second compound 0.01 µM, first compound 0.0316 µM): 86.6%
- viability, T/C (second compound 0.01 µM, first compound 0.1 µM): 77.3%
- viability, T/C (second compound 0.01 µM, first compound 0.316 µM): 86.2%
- viability, T/C (second compound 0.01 µM, first compound 1 µM): 87.7%
- viability, T/C (second compound 0.01 µM, first compound 3.16 µM): 95.8%
- viability, T/C (second compound 0.01 µM, first compound 10 µM): 74.2%
- viability, T/C [1]: 83.8%
- viability, T/C [2]: 89.4%
- viability, T/C [3]: 79.1%
- viability, T/C [4]: 89.6%
- viability, T/C [5]: 86.1%
- viability, T/C [6]: 36.7%
- viability, T/C [7]: 42.2%
- viability, T/C [8]: 48.9%
- viability, T/C [9]: 38.2%
- viability, T/C [10]: 43.6%
- viability, T/C [11]: 28.7%
- viability, T/C [12]: 8.36%
- viability, T/C [13]: 18.8%
- viability, T/C [14]: 20.2%
- viability, T/C [15]: 20.1%
- viability, T/C [16]: 22.2%
- viability, T/C [17]: 20.9%
- viability, T/C [18]: 7.04%
- viability, T/C [19]: 15.5%
- viability, T/C [20]: 16.1%
- viability, T/C [21]: 18.2%
- viability, T/C [22]: 18.5%
- viability, T/C [23]: 15.2%
- viability, T/C [24]: 6.57%

SMILES: CNC(=O)c1ccc(N2C(=S)N(c3ccc(C#N)c(C(F)(F)F)c3)C(=O)C2(C)C)cc1F + Cc1nc(NC(=O)N2CCCC2C(N)=O)sc1-c1ccnc(C(C)(C)C(F)(F)F)c1
- IC50 (second compound 0.0316 µM): > 10 µM
- IC50 (second compound 0.1 µM): > 10 µM
- IC50 (second compound 0.316 µM): > 10 µM
- IC50 (second compound 1 µM): > 10 µM
- IC50 (second compound 3.16 µM): > 10 µM
- IC50 (second compound 10 µM): > 10 µM
- viability, T/C [1]: 102%
- viability, T/C [2]: 108%
- viability, T/C [3]: 96.1%
- viability, T/C [4]: 115%
- viability, T/C [5]: 107%
- viability, T/C [6]: 104%
- viability, T/C [7]: 108%
- viability, T/C [8]: 106%
- viability, T/C [9]: 99.7%
- viability, T/C [10]: 105%
- viability, T/C [11]: 116%
- viability, T/C [12]: 94.8%
- viability, T/C [13]: 125%
- viability, T/C [14]: 108%
- viability, T/C [15]: 97%
- viability, T/C [16]: 105%
- viability, T/C [17]: 116%
- viability, T/C [18]: 108%
- viability, T/C [19]: 120%
- viability, T/C [20]: 115%
- viability, T/C [21]: 97.6%
- viability, T/C [22]: 118%
- viability, T/C [23]: 105%
- viability, T/C [24]: 108%
- viability, T/C (second compound 3.16 µM, first compound 0.0316 µM): 123%
- viability, T/C (second compound 3.16 µM, first compound 0.1 µM): 110%
- viability, T/C (second compound 3.16 µM, first compound 0.316 µM): 101%
- viability, T/C (second compound 3.16 µM, first compound 1 µM): 112%
- viability, T/C (second compound 3.16 µM, first compound 3.16 µM): 108%
- viability, T/C (second compound 3.16 µM, first compound 10 µM): 121%
- viability, T/C (second compound 10 µM, first compound 0.0316 µM): 61.1%
- viability, T/C (second compound 10 µM, first compound 0.1 µM): 68.6%
- viability, T/C (second compound 10 µM, first compound 0.316 µM): 59.5%
- viability, T/C (second compound 10 µM, first compound 1 µM): 61.2%
- viability, T/C (second compound 10 µM, first compound 3.16 µM): 67.9%
- viability, T/C (second compound 10 µM, first compound 10 µM): 88.5%

Reference: PubChem BioAssay AID1963968 (Molecular Pharmacology Branch, DTP, NCI, 2024)
